Reference: patent publication US20230233569A1 (Revolution Medicines, Inc., priority 2020, published 2023)
Several values for one entry are separate records, joined by “and”; a condition that tells them apart may be missing. Identical values can stand only once. Like-named read-outs stand apart in the source and are kept apart here.

Tests used:
NRAS Q61K = NRAS Q61K (Homo sapiens, UniProt P01111+P62937, Q61K); assay: Disruption of BRAF RBD interaction with Ras (FRET / MOA assay, with Cyclophilin A); assay type: biochemical; conditions: NRAS Q61K; read-out: NRAS Q61K FRET data IC50
Chain of NRAS Q61K (P01111 whole entry Q61K): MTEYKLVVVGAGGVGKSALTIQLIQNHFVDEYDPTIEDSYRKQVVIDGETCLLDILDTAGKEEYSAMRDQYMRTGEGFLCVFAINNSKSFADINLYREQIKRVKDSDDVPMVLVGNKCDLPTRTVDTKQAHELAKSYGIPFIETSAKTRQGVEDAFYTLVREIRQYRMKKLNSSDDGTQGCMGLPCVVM
Chain of NRAS Q61K (P62937 whole entry): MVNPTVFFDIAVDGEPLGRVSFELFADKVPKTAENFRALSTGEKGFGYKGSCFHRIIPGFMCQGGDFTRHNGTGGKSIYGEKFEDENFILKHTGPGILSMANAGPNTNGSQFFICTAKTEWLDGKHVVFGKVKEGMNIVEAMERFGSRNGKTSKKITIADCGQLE
Summary of the method: (§1)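 IC50 reflects compound-driven Ras:Cyclophilin A ternary complex displacing BRAF RBD, read as lowered TR-FRET ratio relative to DMSO after Eu anti-His (10 nM) and APC anti-GST (50 nM) detection for 1.5 h. Prior incubation 3 h, 25° C, with 12.5 nM GMPPNP-loaded Ras, 50 nM BRAF RBD, 25 μM Cyclophilin A; top compound 30 μM.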

NRAS WT = NRAS WT (Homo sapiens, UniProt P01111+P62937); assay: as above; assay type: biochemical; conditions: NRAS WT; read-out: NRAS WT FRET data IC50
Chain of NRAS WT (P01111 whole entry): as the sequence (P01111 whole entry Q61K) above, with K61Q counted along it
Chain of NRAS WT (P62937 whole entry): as the sequence (P62937 whole entry) above
Summary of the method: as §1

NRAS Q61R = NRAS Q61R (Homo sapiens, UniProt P01111+P62937, Q61R); assay: as above; assay type: biochemical; conditions: NRAS Q61R; read-out: NRAS Q61R FRET data IC50
Chain of NRAS Q61R (P01111 whole entry Q61R): as the sequence (P01111 whole entry Q61K) above, with K61R counted along it
Chain of NRAS Q61R (P62937 whole entry): as the sequence (P62937 whole entry) above
Summary of the method: as §1

KRAS Q61H = KRAS Q61H (Homo sapiens, UniProt P01116+P62937, Q61H); assay: as above; assay type: biochemical; conditions: KRAS Q61H; read-out: KRAS Q61H FRET data IC50
Chain of KRAS Q61H (P01116 1-169 isoform P01116-2 Q61H limits assumed): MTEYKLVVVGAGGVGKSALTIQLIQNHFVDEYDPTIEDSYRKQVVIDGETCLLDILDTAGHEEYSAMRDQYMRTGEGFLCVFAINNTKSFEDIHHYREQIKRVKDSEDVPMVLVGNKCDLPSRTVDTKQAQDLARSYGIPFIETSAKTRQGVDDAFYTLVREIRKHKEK
Chain of KRAS Q61H (P62937 whole entry): as the sequence (P62937 whole entry) above
Summary of the method: as §1

NCI-H358 (K-Ras G12C) = assay: CellTiter-Glo cell viability assay, 5-day treatment; assay type: cell-based; conditions: Homo sapiens
Summary of the method: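 Five-day compound treatment of plated cells; luminescent read after ~30 min at RT. Percent-of-DMSO data fit to a four-parameter logistic model.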

KRAS G12S = KRAS G12S (Homo sapiens, UniProt P01116+P62937, G12S); assay: Disruption of BRAF RBD interaction with Ras (FRET / MOA assay, with Cyclophilin A); assay type: biochemical
Chain of KRAS G12S (P01116 1-169 isoform P01116-2 G12S limits assumed): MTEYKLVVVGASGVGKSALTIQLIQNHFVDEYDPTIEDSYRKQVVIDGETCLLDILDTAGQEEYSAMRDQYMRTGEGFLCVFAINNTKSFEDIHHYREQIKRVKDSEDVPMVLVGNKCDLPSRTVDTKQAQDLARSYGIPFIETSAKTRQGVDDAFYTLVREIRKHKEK
Chain of KRAS G12S (P62937 whole entry): as the sequence (P62937 whole entry) above
Summary of the method: (§2)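 TR-FRET readout: a drop in ratio relative to DMSO wells marks disruption of the K-Ras:BRAF RBD complex via compound-induced K-Ras–Cyclophilin A ternary complex. Dosing used ten 3-fold steps from 30 μM final, 3 h at 25 °C, then Eu-anti-His 10 nM plus APC-anti-GST 50 nM for another 1.5 h. Values are IC50s.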

NRAS G12C = NRAS G12C (Homo sapiens, UniProt P01111+P62937, G12C); assay: as above; assay type: biochemical
Chain of NRAS G12C (P01111 whole entry G12C): as the sequence (P01111 whole entry Q61K) above, with G12C, K61Q counted along it
Chain of NRAS G12C (P62937 whole entry): as the sequence (P62937 whole entry) above

KRAS G13D = KRAS G13D (Homo sapiens, UniProt P01116+P62937, G13D); assay: as above; assay type: biochemical
Chain of KRAS G13D (P01116 1-169 isoform P01116-2 G13D limits assumed): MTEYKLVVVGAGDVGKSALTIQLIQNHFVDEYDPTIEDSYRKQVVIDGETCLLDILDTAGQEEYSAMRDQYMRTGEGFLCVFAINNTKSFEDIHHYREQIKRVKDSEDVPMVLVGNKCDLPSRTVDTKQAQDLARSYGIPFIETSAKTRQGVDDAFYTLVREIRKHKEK
Chain of KRAS G13D (P62937 whole entry): as the sequence (P62937 whole entry) above
Summary of the method: as §2

KRAS G12V = KRAS G12V (Homo sapiens, UniProt P01116+P62937, G12V); assay: as above; assay type: biochemical
Chain of KRAS G12V (P01116 1-169 isoform P01116-2 G12V limits assumed): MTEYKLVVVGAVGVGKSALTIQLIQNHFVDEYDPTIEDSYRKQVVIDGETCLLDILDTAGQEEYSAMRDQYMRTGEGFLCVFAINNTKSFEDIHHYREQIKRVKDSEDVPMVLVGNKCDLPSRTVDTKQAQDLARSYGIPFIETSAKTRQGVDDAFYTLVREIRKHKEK
Chain of KRAS G12V (P62937 whole entry): as the sequence (P62937 whole entry) above
Summary of the method: as §2

KRAS G13C = KRAS G13C (Homo sapiens, UniProt P01116+P62937, G13C); assay: as above; assay type: biochemical
Chain of KRAS G13C (P01116 1-169 isoform P01116-2 G13C): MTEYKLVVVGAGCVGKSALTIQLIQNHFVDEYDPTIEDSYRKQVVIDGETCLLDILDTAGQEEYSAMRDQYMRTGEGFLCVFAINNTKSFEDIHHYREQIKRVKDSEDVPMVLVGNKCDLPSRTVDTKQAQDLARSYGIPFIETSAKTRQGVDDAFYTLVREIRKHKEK
Chain of KRAS G13C (P62937 whole entry): as the sequence (P62937 whole entry) above
Summary of the method: as §2

KRAS G12C = KRAS G12C (Homo sapiens, UniProt P01116+P62937, G12C); assay: as above; assay type: biochemical
Chain of KRAS G12C (P01116 1-169 isoform P01116-2 G12C): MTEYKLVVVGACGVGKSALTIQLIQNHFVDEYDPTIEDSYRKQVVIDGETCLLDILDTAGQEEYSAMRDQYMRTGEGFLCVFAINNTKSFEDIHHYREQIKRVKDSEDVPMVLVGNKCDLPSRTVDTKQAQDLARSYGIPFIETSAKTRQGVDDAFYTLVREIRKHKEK
Chain of KRAS G12C (P62937 whole entry): as the sequence (P62937 whole entry) above
Summary of the method: as §2

KRAS G12D = KRAS G12D (Homo sapiens, UniProt P01116+P62937, G12D); assay: as above; assay type: biochemical
Chain of KRAS G12D (P01116 1-169 isoform P01116-2 G12D limits assumed): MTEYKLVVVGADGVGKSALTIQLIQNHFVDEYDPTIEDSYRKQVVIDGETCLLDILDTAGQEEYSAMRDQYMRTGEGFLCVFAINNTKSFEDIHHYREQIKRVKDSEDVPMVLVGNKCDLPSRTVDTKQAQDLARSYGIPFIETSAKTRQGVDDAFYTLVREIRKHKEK
Chain of KRAS G12D (P62937 whole entry): as the sequence (P62937 whole entry) above
Summary of the method: as §2

KRAS WT = KRAS WT (Homo sapiens, UniProt P01116+P62937); assay: as above; assay type: biochemical; conditions: KRAS WT; read-out: KRAS WT FRET data IC50
Chain of KRAS WT (P01116 1-169 isoform P01116-2 limits assumed): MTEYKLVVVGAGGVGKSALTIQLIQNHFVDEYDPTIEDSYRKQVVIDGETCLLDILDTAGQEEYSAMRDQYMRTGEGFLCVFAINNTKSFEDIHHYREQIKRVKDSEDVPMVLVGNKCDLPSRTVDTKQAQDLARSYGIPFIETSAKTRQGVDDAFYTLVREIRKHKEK
Chain of KRAS WT (P62937 whole entry): as the sequence (P62937 whole entry) above
Summary of the method: as §2

[1] = NCI-H358, H358, K-Ras G12C, read-out: Additional H358 Cell Viability assay data (K-Ras G12C, IC50)
[2] = read-out: KRAS G12S FRET data, IC50
[3] = NRAS G12C, read-out: NRAS G12C FRET data IC50
[4] = KRAS G13D, read-out: KRAS G13D FRET data IC50
[5] = KRAS G12V, read-out: KRAS G12V FRET data IC50
[6] = KRAS G13C, read-out: KRAS G13C FRET data IC50
[7] = KRAS G12C, read-out: KRAS G12C FRET data IC50
[8] = read-out: KRAS G12D FRET data, IC50

IC50 (NRAS Q61K) [µM]	IC50 (NRAS Q61R) [µM]	IC50 (KRAS Q61H) [µM]	IC50 (KRAS G12S; [2]) [µM]	IC50 (KRAS WT) [µM]	IC50 (KRAS G12V; [5]) [µM]	IC50 (KRAS G13C; [6]) [µM]	IC50 (KRAS G12C; [7])	IC50 (KRAS G12D; [8]) [µM]	Structure (SMILES)	other results
0.1 to 1	0.1 to 1	0.01 to 0.1	0.01 to 0.1	0.01 to 0.1	0.01 to 0.1	0.01 to 0.1	0.01 to 0.1 µM and < 0.01 µM	0.1 to 1	C=CC(=O)N1CC[C@H](C(=O)N(C)[C@H](C(=O)N[C@H]2Cc3cc(O)cc(c3)-c3ccc4c(c3)c(c(-c3cnccc3[C@H](C)OC)n4CC)CC(C)(C)COC(=O)[C@@H]3CCCN(N3)C2=O)C(C)C)C1 [Example A076]	IC50 (NRAS G12C; [3]): < 0.01 µM; IC50 (KRAS G13D; [4]): 0.01 to 0.1 µM
0.1 to 1	0.1 to 1	0.01 to 0.1	0.1 to 1	0.1 to 1	0.1 to 1	0.1 to 1	0.01 to 0.1 µM	1 to 10	C=CC(=O)N1CC[C@H](C(=O)N(C)[C@H](C(=O)N[C@H]2Cc3cc(O)cc(c3)-c3ccc4c(c3)c(c(-c3cc(F)cnc3COC)n4CC)CC(C)(C)COC(=O)[C@@H]3CCCN(N3)C2=O)C(C)C)C1 [Example A082]	–
1 to 10	1 to 10	0.1 to 1	0.1 to 1	1 to 10	1 to 10	1 to 10	0.01 to 0.1 µM	> 10	C=CC(=O)N1CC[C@H](C(=O)N(C)[C@H](C(=O)N[C@H]2Cc3cc(O)cc(c3)-c3ccc4c(c3)c(c(-c3cncc(COC)c3)n4CC)CC(C)(C)COC(=O)[C@@H]3CCCN(N3)C2=O)C(C)C)C1 [Example A083]	–
0.1 to 1	0.1 to 1	0.01 to 0.1	0.01 to 0.1	0.1 to 1	0.01 to 0.1	0.1 to 1	0.01 to 0.1 µM	0.1 to 1	CCn1c(-c2cnccc2COC)c2c3cc(ccc31)-c1cc(O)cc(c1)C[C@H](NC(=O)[C@H](C(C)C)N(C)C(=O)[C@H]1CCN(C(=O)/C=C/CN(C)C)C1)C(=O)N1CCC[C@H](N1)C(=O)OCC(C)(C)C2 [Example A087]	–

Continued, compound first:

Structure (SMILES)	IC50 (NRAS Q61K) [µM]	IC50 (NRAS Q61R) [µM]	IC50 (KRAS Q61H) [µM]	IC50 (KRAS G12S; [2]) [µM]	IC50 (KRAS WT) [µM]	IC50 (KRAS G12V; [5]) [µM]	IC50 (KRAS G13C; [6]) [µM]	IC50 (KRAS G12C; [7])	IC50 (KRAS G12D; [8]) [µM]	other results
CCn1c(-c2cccnc2[C@H](C)OC)c2c3cc(ccc31)-c1csc(n1)C[C@H](NC(=O)[C@H](C(C)C)N(C)C(=O)N1[C@H](C)COC[C@H]1C)C(=O)N1CCC[C@H](N1)C(=O)OCC(C)(C)C2 (atropisomer, axis not shown) [Example A275]	< 0.01	0.01 to 0.1	< 0.01	–	–	–	–	–	–	IC50 (NRAS WT): 0.01 to 0.1 µM
CCn1c(-c2cccnc2[C@H](C)OC)c2c3cc(ccc31)-c1csc(n1)C[C@H](NC(=O)[C@H](C(C)C)N(C)C(=O)N1CC([C@@H](C)OC)C1)C(=O)N1CCC[C@H](N1)C(=O)OCC(C)(C)C2 (atropisomer, axis not shown) [Example A278]	0.01 to 0.1	0.01 to 0.1	–	–	–	–	–	–	–	IC50 (NRAS WT): 0.01 to 0.1 µM; IC50 (NCI-H358 (K-Ras G12C); NCI-H358, 120 h, 5-day treatment, read-out: H358 Cell Viability assay data (K-Ras G12C, IC50)): < 0.01 µM
C=CC(=O)N1CC[C@H](C(=O)N(C)[C@H](C(=O)N[C@H]2C[C@H]3CN(CCO3)c3ccc4c(c3)c(c(-c3cccnc3[C@H](C)OC)n4CC)CC(C)(C)COC(=O)[C@@H]3CCCN(N3)C2=O)C(C)C)C1 (racemic) [Example A507]	> 10	> 10	> 10	–	–	–	–	–	–	IC50 (KRAS G12S; KRAS G12S FRET data, IC50): 1 to 10 µM; IC50 (NRAS G12C; NRAS G12C FRET data IC50, NRAS G12C): 0.1 to 1 µM; IC50 (KRAS G13D; KRAS G13D FRET data IC50, KRAS G13D): > 10 µM; IC50 (KRAS G12V; KRAS G12V FRET data IC50, KRAS G12V): 1 to 10 µM; IC50 (KRAS G13C; KRAS G13C FRET data IC50, KRAS G13C): 1 to 10 µM; IC50 (KRAS G12C; KRAS G12C FRET data IC50, KRAS G12C): 0.1 to 1 µM; IC50 (KRAS G12D; KRAS G12D FRET data, IC50): > 10 µM; IC50 (NCI-H358 (K-Ras G12C); [1]): 0.1 to 1 µM
C=CC(=O)N1CC[C@H](C(=O)N(C)[C@H](C(=O)N[C@H]2Cc3cc(O)cc(c3)-c3ccc4c(c3)c(c(-c3nccnc3COC)n4CC)CC(C)(C)COC(=O)[C@@H]3CCCN(N3)C2=O)C(C)C)C1 [Example A085]	> 10	> 10	1 to 10	> 10	> 10	> 10	> 10	1 to 10 µM	> 10	–
C=CC(=O)N1CC[C@H](C(=O)N(C)[C@H](C(=O)N[C@H]2Cc3cc(O)cc(c3)-c3ccc4c(c3)c(c(-c3ccncc3)n4C(C)(C)C#N)CC(C)(C)COC(=O)[C@@H]3CCCN(N3)C2=O)C(C)C)C1 [Example A086]	0.1 to 1	1 to 10	0.1 to 1	0.1 to 1	1 to 10	0.1 to 1	0.1 to 1	0.01 to 0.1 µM	1 to 10	–
CCn1c(-c2cccnc2[C@H](C)OC)c2c3cc(ccc31)-c1cc(O)cc(c1)C[C@H](NC(=O)[C@@H]1[C@H](C)CCN1C(C)=O)C(=O)N1CCC[C@H](N1)C(=O)OCC(C)(C)C2 [Example A144]	0.1 to 1	1 to 10	0.1 to 1	–	–	–	–	–	–	IC50 (NRAS WT): 0.1 to 1 µM
C=CS(=O)(=O)N1CC[C@H](C(=O)N(C)[C@H](C(=O)N[C@H]2Cc3cccc(c3)-c3ccc4c(c3)c(c(-c3cncnc3)n4CC)CC(C)(C)COC(=O)[C@@H]3CCCN(N3)C2=O)C(C)C)C1 [Example A171]	> 10	> 10	> 10	> 10	> 10	> 10	1 to 10	1 to 10 µM	> 10	IC50 (NRAS G12C; [3]): 1 to 10 µM; IC50 (KRAS G13D; [4]): > 10 µM; IC50 (NCI-H358 (K-Ras G12C); [1]): 0.1 to 1 µM
C=CC(=O)N1CC2(CCN2C(=O)N(C)[C@H](C(=O)N[C@H]2Cc3nc(n(C)n3)-c3ccc4c(c3)c(c(-c3cccnc3[C@H](C)OC)n4CC)CC(C)(C)COC(=O)C3CCCN(N3)C2=O)C(C)C)C1 (stereo partly shown) [Example A612]	0.01 to 0.1	0.01 to 0.1	0.01 to 0.1	0.1 to 1	0.1 to 1	0.1 to 1	0.1 to 1	0.01 to 0.1 µM	0.1 to 1	IC50 (NRAS G12C; [3]): < 0.01 µM; IC50 (KRAS G13D; [4]): 0.1 to 1 µM; IC50 (NCI-H358 (K-Ras G12C); [1]): 0.1 to 1 µM
